The values that follow come from patent publication US20090130128A1, “Antiinfective Proanthocyanidin Compounds and Methods of Use Thereof” (priority 2007, published 2009).

Where two headings read alike, the source gives them in different places.

Assay [1] deals with HIV-1 virions. Format: binding.
Assay [2] deals with Rhinovirus particles. Format: binding.
Assay [3] has as its system H5N1 virions. The format is binding, Influenza A virus (H5N1). Particulars: for relative percent of total binding species: bound to H5N1 after incubation in botanical extract.
The test system of assay [4] is H1N1 virions. The assay is described as follows: Viral Direct Binding Assay with DART TOF-MS. More on the design: species or system Influenza A virus (H1N1). Particulars: for relative percent of total binding species: bound to H1N1 after incubation in botanical extract.
The subject of assay [5] is Dengue-2 virus particles. As to the kind of experiment: Viral Direct Binding Assay with DART TOF-MS.
Assay [6] relates to pseudotyped HIV-1 virions. Format: cell-based. Particulars: GHOST cells, range over clones.
Where [7] appears, read: bound to Den-2 after incubation in botanical extract.

Turning to `COc1cc(OC)c2c(=O)c(O)c(-c3ccc(OC)c(OC)c3)oc2c1` [Averionol], the “Aver:Istro Ratio” value was found to be 5.9 in assay [1]; 2.3 in assay [2]; 14.0 in assay [3] (binding ratio Averionol to Istrocyanidin on H5N1); 18.9 in assay [4] (binding ratio Averionol to Istrocyanidin on H1N1); 3.7 in assay [5]. The “relative percent of total binding species” value (shortened to “relative percent”) in assay [1] was found to be 85.6%; in assay [2], 69.5%; in assay [3], 86.9%; in assay [4], 69.8%; in assay [5] it was 78.5%.

As for Istrocyanidin, the “relative percent” value is 14.4% in assay [1]; 30.5% in assay [2]; 6.2% in assay [3]; 3.7% in assay [4]; 21.2% in assay [5] (setting [7]).

In the case of Proanthocyanidin B2, the “IC100 values for HIV-1 infection” value in assay [6] was “never achieved”.

Consider Tristenonol, for which the “relative percent” value is on record as 0% in assay [1]; 0% in assay [2]; 6.9% in assay [3]; 26.6% in assay [4]; 0% in assay [5] (setting [7]).
